# Data from patent EP0395653B1, “SYNOVIAL PHOSPHOLIPASES” (ELI LILLY AND COMPANY, priority 1987, dated 1989).
# Assays:
# highly purified PLA₂ = target: T1, highly purified PLA₂ (Homo sapiens, UniProt P14555); test: effect of SDS on rate of hydrolysis of phosphatidylcholine (Shakir's method); format: biochemical; settings: of initial enzyme activity
# T1 construct: from tissue; host or cells: pooled synovial fluid (CM Sephadex C50, Sephadex G75, preparative SDS-PAGE)
# T1 sequence (P14555 21-144): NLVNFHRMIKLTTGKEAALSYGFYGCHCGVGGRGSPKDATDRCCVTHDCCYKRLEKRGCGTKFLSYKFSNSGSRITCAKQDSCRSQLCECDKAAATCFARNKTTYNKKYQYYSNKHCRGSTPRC
# Method: Determination of phospholipase activities towards the radiolabeled synthetic substrates, dipalmitoylphosphatidylcholine, and 2-linoleoyl-1-palmitoylphosphatidylethanolamine, was carried out as described by Shakir, (1981) Anal Biochim 114:64-70. Standard incubation mixtures contained 750 nmol of phospholipid, 2 mM CaCl₂, 2 mM sodium deoxycholate (DOC), 0.09% Triton X-100, and enzyme protein in 0.1 M Tris-HCl buffer in a total volume of 400 µl. Incubations were carried out at optimal pH (see below) for 1 h at 37°C in a shaking water bath. The reaction was stopped by addition of 2.0 ml of n-heptane-isopropanol-1 N sulfuric acid (1:4:0.1, v/v/v). Released fatty acids were extracted by the method of Shakir, (1981) Anal Biochim 114:64-70. PLA₂ activity is expressed as nmol of released fatty acid per mg of protein per h.
# The effect of SDS on the rate of hydrolysis of phosphatidylcholine by highly purified PLA₂ was studied using Shakir's method, supra. SDS inhibited PLA₂ activity on a concentration-dependent manner. Inhibition of PLA₂ was 94 and 7% of initial enzyme activity at SDS concentrations of 1 mg/ml and 0.1 mg/ml, respectively. In evaluating the utility of preparative SDS-PAGE, recovery of enzyme from the slab gel was consistently between 95-100% of the total enzyme applied to the gel.
# sPLA₂ type B = test: effect of Tris or Na deoxycholate on hydrolytic activity; format: biochemical, human
# sPLA₂ type A = sPLA₂ type A (Homo sapiens, UniProt P14555); settings: 0.5 M Tris
molecule,measurement,setting,value
"CCCCCCCCCCCCOS(=O)(=O)[O-].[Na+] [SDS, sodium dodecyl sulfate]",inhibition at 100 µg/mL,highly purified PLA₂; SDS 0.1 mg/ml,7%
same,inhibition at 1000 µg/mL,highly purified PLA₂; SDS 1 mg/ml,94%
NC(CO)(CO)CO [Tris],effect on hydrolytic activity of type B relative to type A,sPLA₂ type B; 0.5 M Tris,considerable stimulation
same,effect on sPLA₂ type A activity,sPLA₂ type A,inhibited
sodium deoxycholate [Na deoxycholate],effect on hydrolytic activity of type B relative to type A,sPLA₂ type B; 0.1% Na deoxycholate,considerable stimulation
